Here are results for five compounds from patent US10428013B2, “Amide compound, preparation method and uses thereof” (Shanghai Institute of Phamaceutical Industry, priority 2011, dated 2019).

Molecules are shown by their SMILES.

The test system of data set [1] is Mice. Kind of data set: Testing for acute toxicity in mice. The format is in vivo. The note with it: orally by gavage, 5 g/kg, observation 14 days. The method, then: Testing for Acute Toxicity in Mice
The compounds was dissolved into an appropriate amount of Tween-80, and suspended and dispersed uniformly into a given amount of CMC-Na solution, which was administered orally and by gavage at a dose of 5 g/kg, with no toxicity associated with administration being observed, and no death of animals occurred during observation of continuous 14 days. From the results, the sample Compound 01, Compound 02, Compound 03, Compound 04, Compound 05, Compound 06, Compound 07, Compound 08, Compound 09, Compound 10, Compound 11, Compound 12, Compound 13, Compound 14, Compound 15, Compound 16, Compound 17, Compound 18, Compound 19, Compound 20 and Compound 21 were safe.

In data set [2] the test system is Hyperlipemia Model of SD Rat. Kind of data set: Screening in the hyperlipemia model of SD rat (fat emulsion by gavage; serum lipids). To be noted: hyperlipemia SD rats, dosed 21 days, X ± SD. The format is in vivo. On the procedure: Materials and Methods for Screening with the Compounds Prepared in Experiment 1 to 21 in the Hyperlipemia Model of SD Rat
SD rats, male, 150-180 g, supplied by Shanghai Slaccas Laboratory Animal Company Limited.
Preparation of fat emulsion: 500 g lard oil was weighed and placed into a vessel, heated for melting, and upon heating up to the temperature of 100° C., 200 g cholesterol was added and fully dissolved, then 20 g propylthiouracil was added. After full stirring and dissolving, 500 ml Tween 80 was added to give an oil phase. Meanwhile, 600 ml distilled water and 400 ml 1,2-propylene glycol were heated to 60° C. in water bath, and then 40 g sodium deoxycholate was added with stirring, until full dissolution, to give an aqueous phase. The aqueous phase was added into the oil phase and fully and uniformly mixed, to prepare the fat emulsion.
Formulation of the solution for the compounds: an appropriate amount of compounds was triturated with appropriate amount of Tween 80 for homogeneous dispersion, and then sufficient CMC-Na solution was added and fully triturated, suspended to give the solution for the compounds.
The animals were fed for acclimation for 3 days, with 8 animals as blank control (Control) according to weight, and the rest was subject to intragastric administration of fat emulsion at 1 ml/100 g weight at A.M. 9:00-11:00 daily for continuous 2 weeks; the animals were fasted for 12 hours, and had 1 ml blood sampled at orbital cavity, which was measured with the Hitachi Automatic Biochemical Analyzer 7080 for serum cholesterol (CHO), triglyceride (TO), low-density lipoprotein (LDL-C) and high-density lipoprotein (HDL-C), with the animals having CHO of 4-7 mmol/L for experiment.
The animals dosed with fat emulsion for 2 weeks were divided into model group (Model), simvastatin group (Sim, 10 mg/kg) and compound group (40 mg/kg) according to weight, and continued to receive intragastric administration with fat emulsion; at the same time, the dosed group was administered with respective amount of drug, and the model group was administered with equal volume of solvent. Fat emulsion was dosed by gavage at A.M., and drug was dosed at P.M. The animals were weighed at Monday, and were observed. The animals were dosed for continuous 21 days, and fasted for 12 hours, with 1 ml blood sampling at orbital cavity. The liver was exposed and observed for pathologic condition; after slicing and weighing, it was fixed into the 4% formaldehyde solution for pathologic examination.
The Hitachi Automatic Biochemical Analyzer 7080 was used to measure serum cholesterol (CHO), triglyceride (TG), low-density lipoprotein (LDL-C) and high-density lipoprotein (HDL-C).
Laboratory data were expressed as X±SD (Standard Deviation), and comparison between groups was carried out by t-testing.

The subject of data set [3] is Cholelithiasis Model of Golden Hamster. Kind of data set: Screening in the cholelithiasis model of golden hamster (biochemical measurement of bile). It is filed as in vivo, golden hamsters. To be noted: dosed 45 days, X ± SD. The method, then:
Screening with the Compounds Prepared in Experiment 1 to 21 in the Cholelithiasis Model of Golden Hamster
68 male golden hamsters, 50-60 g, supplied by Shanghai Slaccas Laboratory Animal Company Limited.
The animals were fed for acclimation for 3 days, with 8 animals as blank control (Control) according to weight. The control was dosed with normal rat feedstuff, and the rest was dosed with feedstuff leading to cholelithiasis (sucrose 32.1%, cheese 64.2%, cholesterol 0.2%, salt 3%, vitamin B1 […], concentrated fish liver oil 0.4%). The animals were fed for acclimation for another 7 days, and divided into model group (Model), simvastatin group (Sim, 10 mg/kg), Ursodesoxycholic acid group (UDCA, 40 mg/kg), and compound group, n=6/group.
[…] 2:00-3:00 daily. The animals were weighed at Monday, and observed for hair color, stool, and variation of activation level.
The animals were dosed for continuous 45 days and then fasted for 12 hours; were anesthetized with 30 mg/kg sodium secobarbital via intraperitoneal injection; had 1 ml blood sampled via abdominal aorta; had gallbladder exposed, with an orifice on the gallbladder being clamped by the ophthalmological pliers and bile in the gallbladder being sucked with 1 ml syringe.
The Hitachi Automatic Biochemical Analyzer 7080 was used to measure cholesterol (CHO), total total bilirubin (TBIL), total bile acid (TBA) and total protein (TP) in bile.
Laboratory data was expressed as X±SD, and comparison of measurement data between groups was carried out by t-testing, with non-parametric testing for enumeration data.

Regarding `Cc1ccc(C)c(OCCCC(C)(C)C(=O)NCC(=O)c2ccc(CO)cc2)c1` [Compound 21], the “Acute toxicity, overall result” value in data set [1] was “safe”. For the same compound, in data set [2] (40 mg/kg), the “CHO1 Concentration (serum cholesterol)” value worked out at 14.42 ± 2.75 mmol/L, the “HDL-C Concentration (serum high-density lipoprotein)” value (shortened to “HDL-C Concentration”) is given as 1.69 ± 0.26 mmol/L, the “LDL-C Concentration (serum low-density lipoprotein)” value (shortened to “LDL-C Concentration”) was determined as 12.15 ± 3.12 mmol/L and the “TG Concentration (serum triglyceride)” value was found to be 2.00 ± 0.52 mmol/L.
`CCC(CCCOc1cc(C)ccc1C)C(=O)N(C)CC(=O)c1cc(C)cc(O)c1` (stereo not shown) [Compound 16]: in data set [3] (40 mg/kg), the “Cholesterol (CHO) in bile” value is 0.97 ± 0.62 mmol/L, the “Total bile acid (TBA) in bile” value stood at 19.74 ± 12.14 mmol/L, the “Total protein (TP) in bile” value is recorded as 40.70 ± 26.17 g/L and the “Total total bilirubin (TBIL) in bile” value came to 55.0 ± 29.38 µmol/L. For the same compound, in data set [2] (40 mg/kg), the “CHO1 Concentration (serum cholesterol)” value was determined as 9.48 ± 1.27 mmol/L, the “HDL-C Concentration” value was determined as 1.32 ± 0.39 mmol/L, the “LDL-C Concentration” value is listed as 7.13 ± 1.52 mmol/L and the “TG Concentration (serum triglyceride)” value was 0.78 ± 0.25 mmol/L.
Regarding `CCC(C)(C)C(=O)O[C@H]1C[C@@H](C)C=C2C=C[C@H](C)[C@H](CC[C@@H]3C[C@@H](O)CC(=O)O3)[C@H]21` [Simvastatin, reference compound], in data set [3] (10 mg/kg), the “Cholesterol (CHO) in bile” value was 1.07 ± 0.63 mmol/L, the “Total bile acid (TBA) in bile” value came out at 7.68 ± 3.31 mmol/L, the “Total protein (TP) in bile” value worked out at 35.52 ± 18.04 g/L and the “Total total bilirubin (TBIL) in bile” value was found to be 79.2 ± 34.2 µmol/L. In data set [2] (10 mg/kg), the “CHO1 Concentration (serum cholesterol)” value is recorded as 12.52 ± 1.34 mmol/L, the “HDL-C Concentration” value is 1.52 ± 0.32 mmol/L, the “LDL-C Concentration” value stood at 11.92 ± 1.44 mmol/L and the “TG Concentration (serum triglyceride)” value is 1.41 ± 0.16 mmol/L.
On to `CC(Oc1ccc(Cl)cc1)(C(=O)NCC(=O)c1ccc(O)cc1)C1CC1` (stereo not shown) [Compound 20], for which, in data set [3] (20 mg/kg), the “Cholesterol (CHO) in bile” value is recorded as 0.92 ± 0.66 mmol/L, the “Total bile acid (TBA) in bile” value came out at 16.80 ± 9.62 mmol/L, the “Total protein (TP) in bile” value is recorded as 32.94 ± 19.18 g/L and the “Total total bilirubin (TBIL) in bile” value is 75.92 ± .072 µmol/L. In addition, in data set [2] (40 mg/kg), the “CHO1 Concentration (serum cholesterol)” value is 19.88 ± 0.84 mmol/L, the “HDL-C Concentration” value came out at 2.63 ± 0.57 mmol/L, the “LDL-C Concentration” value was found to be 18.48 ± 0.43 mmol/L and the “TG Concentration (serum triglyceride)” value is on record as 1.72 ± 0.26 mmol/L.
Take `CCC(C)(Oc1ccc(C2(c3ccc(OC(C)(CC)C(=O)NCC(=O)c4ccc(O)cc4)cc3)CCCCC2)cc1)C(=O)O` (stereo not shown) [Compound 11]: in data set [3] (80 mg/kg), the “Cholesterol (CHO) in bile” value is reported as 0.82 ± 0.58 mmol/L, the “Total bile acid (TBA) in bile” value is reported as 17.46 ± 7.77 mmol/L, the “Total protein (TP) in bile” value is reported as 28.66 ± 8.48 g/L and the “Total total bilirubin (TBIL) in bile” value came to 48.9 ± 22.10 µmol/L. Moreover, in data set [2] (40 mg/kg), the “CHO1 Concentration (serum cholesterol)” value is given as 12.18 ± 3.12 mmol/L, the “HDL-C Concentration” value is 1.79 ± 0.34 mmol/L, the “LDL-C Concentration” value turned out to be 11.37 ± 3.66 mmol/L and the “TG Concentration (serum triglyceride)” value came out at 1.13 ± 0.14 mmol/L.
